Data set [1] is described as follows: Inhibition of Haemophilus influenzae acetyltransferase activity of GlmU using acetyl-CoA and glucosamine-1-phosphate after 30 mins by Ellman's method.
Data set [2] has as its target Bifunctional protein GlmU (Streptococcus pneumoniae serotype 4 (strain ATCC BAA-334 / TIGR4), UniProt Q97R46). In words: (§1) Inhibition of Streptococcus pneumoniae acetyltransferase activity of GlmU using acetyl-CoA and glucosamine-1-phosphate after 30 mins by Ellman's method. Background: In Ellman's method for cholinesterases, released thiocholine reacts with DTNB.
The nature of data set [3]: Inhibition of Escherichia coli acetyltransferase activity of GlmU using acetyl-CoA and glucosamine-1-phosphate after 30 mins by Ellman's method.
Data set [4] is described as follows: Inhibition of Staphylococcus aureus acetyltransferase activity of GlmU using acetyl-CoA and glucosamine-1-phosphate after 30 mins by Ellman's method.
The nature of data set [5]: Lipophilicity, log D of the compound at pH 7.4. The note with it: buffer.
Data set [6] addresses Bifunctional protein GlmU (Streptococcus pneumoniae serotype 4 (strain ATCC BAA-334 / TIGR4)) (UniProt Q97R46). The data set is described as §1.

Each structure is given as a SMILES string. A value given as a limit tells only on which side of the number the result lay.

Sequence of Bifunctional protein GlmU (Q97R46 whole entry): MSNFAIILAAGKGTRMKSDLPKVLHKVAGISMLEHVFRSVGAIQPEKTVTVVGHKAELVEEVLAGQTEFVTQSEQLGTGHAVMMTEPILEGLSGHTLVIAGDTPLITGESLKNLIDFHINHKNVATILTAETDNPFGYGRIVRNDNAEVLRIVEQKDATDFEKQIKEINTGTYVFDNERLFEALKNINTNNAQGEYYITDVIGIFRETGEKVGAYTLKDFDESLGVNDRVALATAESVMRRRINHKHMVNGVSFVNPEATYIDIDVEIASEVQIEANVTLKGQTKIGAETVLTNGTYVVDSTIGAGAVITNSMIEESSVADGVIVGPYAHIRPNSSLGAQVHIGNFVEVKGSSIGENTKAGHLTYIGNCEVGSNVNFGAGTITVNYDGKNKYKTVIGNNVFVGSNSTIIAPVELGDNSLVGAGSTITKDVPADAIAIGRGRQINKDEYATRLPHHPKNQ
Sequence of Bifunctional protein GlmU (Streptococcus pneumoniae serotype 4 (strain ATCC BAA-334 / TIGR4)) (Q97R46 whole entry): as above

A word on the IC50: it is the concentration at which inhibition is half-maximal. With `COc1cc(OC)c(S(=O)(=O)NCc2ccccc2-c2ccc(C(=O)O)cc2)cc1NC(=O)CCC(=O)O`, the figures for the IC50 in data set [1], in data set [2] and in data set [3] were 5 µM, 15 µM and 0.9 µM, respectively.
Usually logD stands for lipophilicity at a set pH, counting ionised and neutral species. As for `COc1cc(OC)c(S(=O)(=O)N2c3ccccc3CCC2C)cc1NC(=O)CSCC(=O)O` (stereo not drawn), the IC50 was 0.2 µM in data set [1], greater than 200 µM in data set [2], greater than 200 µM in data set [4] and 0.1 µM in data set [3]. For the same compound, in data set [5], the logD is -1.2.
For `COc1cc(OC)c(S(=O)(=O)NCc2ccc3c(c2)OCO3)cc1NC(C)=O`, the IC50 in data set [1], in data set [2], in data set [4] and in data set [3] was greater than 200 µM in each case.
Regarding `COc1cc(OC)c(S(=O)(=O)N2c3ccccc3CCC2C)cc1NC(=S)NCC(=O)O` (stereo not drawn), the IC50 was 1 µM in data set [1], 30 µM in data set [2], greater than 200 µM in data set [4] and 0.5 µM in data set [3]. In data set [5], this compound came in with a log distribution coefficient (logD) of -1.04.
In the case of `COc1cc(OC)c(S(=O)(=O)N(c2ccccc2)C(C)C)cc1NC(C)=O`, the IC50 was 16 µM in data set [1], greater than 200 µM in data set [2], greater than 200 µM in data set [4] and 2 µM in data set [3].
For the compound `COc1cc(OC)c(S(=O)(=O)Nc2ccc(F)cc2)cc1NC(C)=O`, the IC50 in data set [1] was 60 µM; in data set [2] it was greater than 200 µM; in data set [4] it was greater than 200 µM; in data set [3] it was 25 µM.
Turning to `COc1cc(OC)c(S(=O)(=O)NCc2ccccc2N2CCC(CC(=O)O)CC2)cc1NC(=O)CCC(=O)O`, the IC50 in data set [1] was 3 µM; in data set [2], 2 µM; in data set [4], 10 µM; in data set [3], less than 0.4 µM.
With `COc1cc(OC)c(S(=O)(=O)N2c3ccccc3CC2C)cc1NC(C)=O` (stereo not drawn), the results for the IC50 in data set [1], in data set [2] and in data set [4] were 8 µM, greater than 200 µM and greater than 200 µM, respectively.
As for `COc1cc(OC)c(S(=O)(=O)N2CCCC2C)cc1NC(C)=O` (stereo not drawn), the IC50 in data set [1], in data set [2], in data set [4] and in data set [3] was greater than 200 µM in each case.
Regarding `COc1cc(OC)c(S(=O)(=O)N2c3ccccc3CCC2C)cc1NC(=O)/C=C/C(=O)O` (stereo not drawn), the IC50 in data set [1] is 2 µM; in data set [2], 10 µM; in data set [4] it was greater than 200 µM; in data set [3], 0.5 µM.
The matching figures for `COc1cc(OC)c(S(=O)(=O)N2CCCCC2)cc1NC(C)=O`: greater than 200 µM, greater than 200 µM, greater than 200 µM and 80 µM.
In the case of `COc1cc(OC)c(S(=O)(=O)N2c3ccccc3CCC2C)cc1NC(=O)CSc1ccncc1` (stereo not drawn), the IC50 in data set [1] was 6 µM; in data set [2], greater than 200 µM; in data set [4], greater than 200 µM; in data set [3] it was 1 µM. In addition, in data set [5], the logD is 2.8.
Take `COc1cc(OC)c(S(=O)(=O)Nc2cccc(F)c2)cc1NC(C)=O`: the IC50 in data set [1] was 30 µM; in data set [2], greater than 200 µM; in data set [4], greater than 200 µM; in data set [3], 15 µM.
In the case of `COc1cc(OC)c(S(=O)(=O)N(C)C)cc1NC(C)=O`, the IC50 in data set [1], in data set [2], in data set [4] and in data set [3] was greater than 200 µM throughout.
For the compound `COc1cc(OC)c(S(=O)(=O)Nc2cccc(C)c2)cc1NC(C)=O`, the IC50 was 40 µM in data set [1], greater than 200 µM in data set [2], greater than 200 µM in data set [4] and 17 µM in data set [3].
`COc1cc(OC)c(S(=O)(=O)NCc2ccccc2Br)cc1NC(C)=O`: the IC50 was 20 µM in data set [1], greater than 200 µM in data set [2], greater than 200 µM in data set [4] and 4 µM in data set [3].
Consider `COc1cc(OC)c(S(=O)(=O)NCc2ccccc2N2CCC(C(=O)O)CC2)cc1NC(=O)CCC(=O)O`, for which the IC50 in data set [1] turned out to be 1 µM; in data set [2], 2 µM; in data set [4], 50 µM; in data set [3], 0.5 µM.
The matching figures for `COc1cc(OC)c(S(=O)(=O)N(C)c2ccccc2)cc1NC(C)=O`: 6 µM, greater than 200 µM, greater than 200 µM and 3 µM.
The matching figures for `COc1cc(OC)c(S(=O)(=O)Nc2ccccc2F)cc1NC(C)=O`: 10 µM, greater than 200 µM, greater than 200 µM and 5 µM.
For `COc1cc(OC)c(S(=O)(=O)NCc2ccccc2N2CCC(CO)CC2)cc1NC(=O)CCC(=O)O`, the IC50 in data set [1] is 6 µM; in data set [2], 5 µM; in data set [4], greater than 200 µM; in data set [3], 3 µM. The same compound had a logD in data set [5] of less than -1.
The like results for `COc1cc(OC)c(S(=O)(=O)N2c3ccccc3CCC2C)cc1NC(C)=O` (stereo not drawn) were, in that order, 3 µM, 55 µM, greater than 200 µM, 1.5 µM and 1.97.
With `COc1cc(OC)c(S(=O)(=O)NCc2ccccc2N2CCCCC2)cc1NC(C)=O`, the IC50 in data set [1] was 120 µM; in data set [4] it was greater than 200 µM; in data set [3] it was greater than 200 µM.
In the case of `COc1ccccc1CNS(=O)(=O)c1cc(NC(C)=O)c(OC)cc1OC`, the IC50 in data set [1] was 54 µM; in data set [2], greater than 200 µM; in data set [4], greater than 200 µM; in data set [3] it was 10 µM.
For `COc1cc(OC)c(S(=O)(=O)N2c3ccccc3CCC2C)cc1NC(=O)c1ccccc1` (stereo not drawn), the IC50 in data set [1], in data set [2], in data set [4] and in data set [3] was greater than 200 µM throughout.
For the compound `COc1cc(OC)c(S(=O)(=O)NCc2ccccc2N2CCCCC2)cc1NC(=O)CCC(=O)O`, the IC50 is 5 µM in data set [1], 12 µM in data set [2], greater than 200 µM in data set [4] and 3 µM in data set [3]. In addition, in data set [5], the logD is -0.72.
The like results for `COc1cc(OC)c(S(=O)(=O)N2c3ccccc3CCC2C)cc1NC(=O)CCC(=O)O` (stereo not drawn) were, in that order, 0.6 µM, 20 µM, greater than 200 µM, 0.09 µM and -0.87.
For the compound `COc1cc(OC)c(S(=O)(=O)Nc2ccccc2)cc1NC(C)=O`, the IC50 was 70 µM in data set [1], greater than 200 µM in data set [2], greater than 200 µM in data set [4] and 20 µM in data set [3].
Consider `COc1cc(OC)c(S(=O)(=O)Nc2ccc(C)cc2)cc1NC(C)=O`, for which the IC50 is 47 µM in data set [1], greater than 200 µM in data set [2], greater than 200 µM in data set [4] and 21 µM in data set [3].
With `COc1cc(OC)c(S(=O)(=O)N2c3ccccc3CCC2C)cc1NC(=O)NCC(=O)O` (stereo not drawn), the IC50 was 5 µM in data set [1], 20 µM in data set [2], greater than 200 µM in data set [4] and 0.5 µM in data set [3]. The compound also displayed a logD in data set [5] of -1.02.
With `COc1cc(OC)c(S(=O)(=O)NCc2ccccc2N2CCC(CO)CC2)cc1NC(C)=O`, the IC50 in data set [1] is 80 µM; in data set [2], 70 µM; in data set [4], greater than 200 µM; in data set [3], 40 µM. The same compound showed a log distribution coefficient (logD) in data set [5] of 1.03.
On to `COc1cc(OC)c(S(=O)(=O)N2c3ccccc3CCC2C)cc1NC(=O)COc1ccc(C(C)=O)cc1` (stereo not drawn), for which the IC50 in data set [1], in data set [2], in data set [4] and in data set [3] was greater than 200 µM throughout.
As for `COc1cc(OC)c(S(=O)(=O)NCc2ccccc2N2CCC(COC(=O)CCC(=O)O)CC2)cc1NC(=O)CCC(=O)O`, the IC50 in data set [4] is greater than 200 µM; in data set [3] it was 0.25 µM. In addition, the logD in data set [5] is -1.
Consider `COC(=O)c1ccccc1CNS(=O)(=O)c1cc(NC(C)=O)c(OC)cc1OC`, for which the IC50 was 55 µM in data set [1], greater than 200 µM in data set [2], greater than 200 µM in data set [4] and 15 µM in data set [3].
In the case of `COc1cc(OC)c(S(=O)(=O)N2c3ccccc3CCC2C)cc1NC(=O)COC(C)=O` (stereo not drawn), the IC50 in data set [1] is 2 µM; in data set [2], 90 µM; in data set [4], greater than 200 µM; in data set [3], 2 µM.
For `COc1cc(OC)c(S(=O)(=O)N2CCCCC2C)cc1NC(C)=O` (stereo not drawn), the IC50 in data set [1] was greater than 200 µM; in data set [2], greater than 200 µM; in data set [4], greater than 200 µM; in data set [3], 130 µM.
For `CCN(c1ccccc1C)S(=O)(=O)c1cc(NC(C)=O)c(OC)cc1OC`, the IC50 in data set [1] was 80 µM; in data set [2] it was greater than 200 µM; in data set [4], greater than 200 µM; in data set [3], 15 µM.
Usually inhibition stands for the drop in the measured response relative to a control, in per cent. Low values mean little suppression, high ones strong suppression. `COc1cc(OC)c(S(=O)(=O)N2c3ccccc3CCC2C)cc1NC(=O)COCC(=O)O` (stereo not drawn): the IC50 was 0.3 µM in data set [1], greater than 200 µM in data set [4] and 0.2 µM in data set [3]. This compound also yielded an inhibition in data set [6] of 28%. For the same compound, the logD in data set [5] was -1.
As for `COc1cc(OC)c(S(=O)(=O)N2c3ccccc3CCC2C)cc1NS(C)(=O)=O` (stereo not drawn), the IC50 is greater than 200 µM in data set [1], greater than 200 µM in data set [2], greater than 200 µM in data set [4] and 100 µM in data set [3].
